Results reported in US20240075182A1, “ENHANCED DERMAL PATCH FOR TREATING MENSTRUAL PAIN” (REMY BIOSCIENCES, priority 2021, published 2024).

Columns and labels:
[1] = Saturation concentration (solubility) of CBD in PIB adhesive, CBD added until turbidity; assay type: physicochemical
Text: Regarding peel strength of adhesives, the inventor used judgment and estimation for preparing the patch with 26% of tackifying resin. Escorez 5400 has been used in many adhesives but not in PIB. […] The inventor estimated the peel strength of the formulation with tackifier and without tackifier, by peeling them both from the inventor's own arm skin. To obtain saturation concentration of CBD in the PIB adhesive with 26% of tackifying resin Escorez 5400 the inventor needed to add more CBD to reach turbidity. […] It was the same as the flux from PIB saturated with CBD without tackifier.
This is expected to result in thus greater flux of CBD to a patient, where the dermal patch is in contact with the skin of a patient.

[2] = Transdermal flux / transdermal delivery from PIB adhesive patch (Franz diffusion cell)
Text: The inventor used a Franz cell for assessing release kinetics, as described below. For testing release kinetics from transdermal monolithic patches, where a semi-solid adhesive matrix is used, the Franz cell has the following components, from top to bottom: (1) Stopper used to seal top of donor compartment; (2) Donor compartment; (3) Patch situated at very bottom of donor compartment, with adhesive side of patch attached to human cadaver skin; (4) Human cadaver skin located immediately under the patch; (5) Receiving compartment, located immediately below the skin. Receiving compartment is filled with ethanol/water solution; (6) Magnetic stirrer located at bottom of receiving compartment.
After receiving the donor human skin, the inventor prepared the skin for testing in a Franz cell by thawing the skin to room temperature, washing in distilled water and cutting in round pieces to fit the diameter of the Franz cell opening. Before placing the patch on the human skin, the inventor dried the skin with a paper tissue. The skin with the attached patch was placed between the Upper Donor Chamber and the Lower Receiving Chamber and clamped tightly. […] The test lasts typically 24 hrs and aliquots of 150 L were withdrawn from the receiving chamber after different periods of time and analyzed via HPLC. […]

[3] = as measured at room temperature; cited from earlier work
[4] = cited from earlier work

Q: With `C=C(C)[C@@H]1CCC(C)=C[C@H]1c1c(O)cc(CCCCC)cc1O` [CBD, cannabidiol] as the molecule, how does the “concentration of the saturation of CBD in PIB adhesive” value ([1]; PIB adhesive with 26% of tackifying resin Escorez 5400, CBD added to reach turbidity) read?
A: about 18%

Q: And the “solubility of CBD in PIB adhesive, effect of Escorez 5400 tackifier” value ([1]; with Escorez 5400 tackifier versus without)?
A: increased

Q: What about the “transdermal flux of CBD” value ([2]; PIB adhesive with 26% Escorez 5400 saturated with CBD, versus PIB saturated with CBD without tackifier) of the same molecule?
A: did not increase

Q: Which pKa [3] does the source give for `O=S(=O)(O)CCNC1CCCCC1` [CHES] here?
A: 9.5

Q: For `COc1cc(CNC(=O)CCCC/C=C/C(C)C)ccc1O` [Capsaicin, trans-8-methyl-N-vanillyl-6-nonenamide], which water solubility [4] is on record?
A: not water-soluble

Q: With `O=S(=O)(O)CCN1CCN(CCS(=O)(=O)O)CC1` [PIPES] as the molecule, how does the pKa [3] read?
A: 6.8

Q: Which pKa [3] does the source give for `OB(O)O` [boric acid] here?
A: 9.2

Q: For `CCCCCCCC/C=C\CCCCCCCC(=O)O` [oleic acid], which “transdermal delivery from PIB adhesive with enhancer” value ([2]; enhancer at 3% in PIB adhesive, versus PIB without enhancer) is on record?
A: double
